The source of these data is patent US20060210479A1 (Dow Global Technologies Inc., priority 2004, published 2006).

One assay deals with LNCaP cell line. Description: Chelate permeability: fluorescence of cytoplasm and membrane fractions. It counts as cell-based, human.
For assay [1], the system named is PZ-HPV-7 normal cell line. Described as above. Format: cell-based.
The next assay has as its system C33-A cells. As to conditions: for EuQCTME Cell Binding (fluorescence per well): 1 mM.
[2] abbreviates: PZ-HVP-7, 1 mM chelate, 2 h, Table 4.

Like-named read-outs stand apart in the source and are kept apart here.

For `CCOP(=O)([O-])CN1CCN(Cc2ccc3cc(C)ccc3n2)CCN(CP(=O)([O-])OCC)CCN(CP(=O)([O-])OCC)CC1.[Eu+3]` [Eu-QCTME, Eu(III) N-(6-methyl-2-quinolylmethyl)-N′,N″,N′″-tris(methylenephosphonic acid ethyl ester)-1,4,7,10-tetraazacyclododecane], in the assay with LNCaP cell line (0-2000 μM, 2 hours, compared to PZ-HPV-7), the “fluorescence in the cytoplasm, dose response” value is listed as “significant increases in fluorescence”. In addition, the “Fluorescence/mg Cytoplasm” value with LNCaP cell line (1 mM chelate, 2 h, Table 4) is given as 3881; in assay [1] (setting [2]) it was 2247. In addition, the “Fluorescence/mg Membrane” value in the assay with LNCaP cell line (1 mM chelate, 2 h, Table 4) was determined as 2561; in assay [1] (setting [2]), 2293. In assay [1] (PZ-HPV-7), the “detectability in normal cells” value is given as “significantly less detectable”. The “EuQCTME Cell Binding (fluorescence per well)” value is reported as 2,967 in the assay on C33-A cells (2 min); 22,763 in the assay on C33-A cells (5 min); 5,075 with C33-A cells (15 min); 2,923 with C33-A cells (30 min); 7,030 in the assay on C33-A cells (45 min); 583 with C33-A cells (60 min). The “EuQCTME Cell Binding (fluorescence per well)” value is listed as 1,275 with C33-A cells (120 min), 2,377 in the assay with C33-A cells (180 min) and 1,322 with C33-A cells (240 min). The “Totals: Normalized total area under each curve (AUC)” value with C33-A cells (over 240 min) was 9.
